Each block holds one compound with its values, some of them ahead of it.
How the values were obtained:
[1] = system: CCRF-CEM; assay: CCK-8 proliferation, CCRF-CEM; format: cell-based, Human; conditions: Homo sapiens, CCRF-CEM; CCK-8; 96 hours; read-out: Inhibitory activity (IC50) on tumor cell proliferation, CCRF-CEM
Method in brief: (§1)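 Cells seeded, then after 24 h treated with 10 concentrations (top 10 µM, 5-fold serial dilution) for a line-specific time at 37°C, 5% CO2. Viability read by CCK-8; IC50 fitted from growth-inhibition curves.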

[2] = system: Jurkat; assay: CCK-8 proliferation, Jurkat; format: cell-based, Human; conditions: Homo sapiens, Jurkat; CCK-8; 96 hours; read-out: Inhibitory activity (IC50) on tumor cell proliferation, Jurkat
Method in brief: as §1

[3] = system: SW620; assay: CCK-8 proliferation, SW620; format: cell-based; conditions: Homo sapiens, SW-620; CCK-8; 96 hours; read-out: Inhibitory activity (IC50) on tumor cell proliferation, SW620
Method in brief: as §1

[4] = system: MGC-803; assay: CCK-8 proliferation, MGC-803 (heads: MGC80-3, MGC803); format: cell-based, Human; conditions: Homo sapiens, MGC-803; CCK-8; 72 hours; read-out: Inhibitory activity (IC50) on tumor cell proliferation, MGC803
Method in brief: as §1

[5] = system: LNcap; assay: CCK-8 proliferation, LNcap; format: cell-based; conditions: Homo sapiens, LNCaP; CCK-8; 96 hours; read-out: Inhibitory activity (IC50) on tumor cell proliferation, Lncap
Method in brief: as §1

[6] = system: CFPAC-1; assay: CCK-8 proliferation, CFPAC-1; format: cell-based; conditions: Homo sapiens, 72 or 96 hours, read-out: Inhibitory activity (IC50) on tumor cell proliferation, CFPAC-1
Protocol: (§2) The tumor cells used herein were cultured in a cell culture medium listed in table A1 at 37°C in an incubator with 5% CO2. Prior to experimentation, all cell lines used were correctly identified by STR profiling, and tested negative for mycoplasma contamination using a mycoplasma detection kit through routine screenings. Table A1. Tumor cells and cell culture medium used in the present disclosure
(§3) IC50 values of the compounds of the present disclosure (including the compounds in Table 1, and compounds of examples) were measured using the Meilun Cell Counting Kit-8 kit from Dalian Meilun Biotech Co., Ltd. Assay details are as follows: tumor cells were seeded in a 96-well plate at a density listed in Table A2. After 24h, 100 µL of the inoculated cells were treated with 0.5µL of the compounds of the present disclosure (including the compounds in Tables 1 and 2, and compounds of examples) at 10 different successively decreasing concentrations (starting at the highest concentration of 10µM; 5-fold serial dilutions). After the cells were treated with the compounds of the present disclosure for a period of time, the cell viability detection reagent was added to the culture medium for cell viability assessment according to the instructions provided with the CCK-8 kit. […] The growth inhibition of the compounds of the present disclosure on cells was plotted by Prism Graphpad software, and the IC50 values of the compounds of the present disclosure were calculated therefrom. […] Seeding protocol and treatment time for tumor cells

[7] = target: T1, ER (Homo sapiens, UniProt P03372); assay: Western blot degradation of ER (MCF-7 Cell); format: cell-based; conditions: Table D12
T1 construct: evaluate the effects of the compounds of the present disclosure on the expression of target proteins in cells; endogenous in cells; host or cells: MCF-7
T1 sequence (P03372 1-595): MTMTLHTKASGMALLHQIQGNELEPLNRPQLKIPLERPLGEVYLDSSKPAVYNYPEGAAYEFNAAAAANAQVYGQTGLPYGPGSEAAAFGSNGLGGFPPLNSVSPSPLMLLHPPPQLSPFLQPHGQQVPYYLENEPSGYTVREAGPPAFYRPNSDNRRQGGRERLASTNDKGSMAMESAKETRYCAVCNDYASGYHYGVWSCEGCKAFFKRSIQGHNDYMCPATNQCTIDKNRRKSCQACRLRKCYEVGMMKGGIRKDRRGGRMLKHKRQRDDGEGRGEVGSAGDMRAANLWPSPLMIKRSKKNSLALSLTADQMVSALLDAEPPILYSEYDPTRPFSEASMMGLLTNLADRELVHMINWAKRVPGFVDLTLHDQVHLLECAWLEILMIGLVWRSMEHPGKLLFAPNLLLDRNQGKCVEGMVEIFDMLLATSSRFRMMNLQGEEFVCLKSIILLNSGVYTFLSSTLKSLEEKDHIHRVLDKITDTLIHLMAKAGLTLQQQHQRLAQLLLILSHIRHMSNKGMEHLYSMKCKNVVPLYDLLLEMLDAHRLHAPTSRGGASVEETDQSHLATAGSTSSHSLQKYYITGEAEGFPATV
Protocol: (§4) Conventional Western blot assay was performed to evaluate the effects of the compounds of the present disclosure on the expression of target proteins in cells.
(§5) (1) Cell Seeding and Protein Harvesting: The selected cells were processed according to the cell seeding procedure and protein harvesting procedure in Table III-2. Table III-2 Cell Seeding and Protein Harvesting Procedures
(§6) (2) To the collected supernatant, 5X SDS sample loading buffer was added, followed by denaturation at 95°C for 5 minutes. The denatured samples were then separated by SDS-PAGE electrophoresis on a polyacrylamide gel. Proteins were transferred to a nitrocellulose membrane (0.45 µm NC membrane), blocked with blocking buffer at room temperature for 1 hour, and subjected to antibody incubation and development procedures according to the antibody manufacturer's instructions (Cell Signaling Technology).
(§7) Half-Maximal Degradation Concentration value (the drug concentration required for degrading proteins by 50%, abbreviated as DC50) reads method: comparing the grayscale values of Western blot bands from drug-treated samples with those from blank DMSO-treated controls, and identifying the drug concentration range at which the grayscale value is half that of the DMSO-treated control bands.
(§8) DC50 values can be calculated using ImageJ software to measure grayscale values of Western blot bands from drug-treated samples. The concentration-response curve is fitted to estimate the drug concentration corresponding to half the grayscale value.
(§9) Target protein remaining (%) refers to the percentage of target protein remaining in hPBMC cells after treatment with protein degrader compounds.
(§10) Calculation method for target protein remaining (%): Use ImageJ software to measure grayscale values of Western blot bands from drug (protein degrader)-treated samples. The grayscale value of drug-treated bands is divided by that of internal control protein bands, and the resulting quotient is normalized to obtain the relative percentage of remaining target protein after protein degrader treatment.
Target protein degradation rate (%) = 100% - target protein remaining (%).

[8] = system: TRK; assay: Western blot degradation of TRK / NTRK (SK-N-AS Cell); format: cell-based; conditions: Table D14
Protocol: as §4, §5, §6, §7, §8, §9
as §10, with “treatment. […]” for “treatment.”

[9] = target: T2, human Cereblon WT GST-tagged protein (Homo sapiens, UniProt Q96SW2); assay: CRBN binding, HTRF (CEREBLON BINDING kit); conditions: Table II-1, CRBN binding, HTRF
T2 construct: purchased CISBIO 64BDCRBNPEH
T2 sequence (Q96SW2 whole entry): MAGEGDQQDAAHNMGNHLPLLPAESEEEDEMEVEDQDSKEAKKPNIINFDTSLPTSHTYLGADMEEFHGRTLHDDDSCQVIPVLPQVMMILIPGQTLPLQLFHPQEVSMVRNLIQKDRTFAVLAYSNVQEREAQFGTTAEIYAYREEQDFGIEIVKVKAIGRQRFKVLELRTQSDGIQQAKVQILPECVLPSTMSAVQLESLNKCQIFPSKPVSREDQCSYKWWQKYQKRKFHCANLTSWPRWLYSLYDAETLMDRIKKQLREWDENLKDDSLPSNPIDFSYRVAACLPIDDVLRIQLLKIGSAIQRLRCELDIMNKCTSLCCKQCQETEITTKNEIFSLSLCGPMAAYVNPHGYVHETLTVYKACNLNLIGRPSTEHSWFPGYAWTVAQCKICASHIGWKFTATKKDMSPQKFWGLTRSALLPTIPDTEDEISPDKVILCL
Method in brief: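 Competitive HTRF: GST-tagged human WT Cereblon mixed with compound, Thalidomide-Re tracer and GST Eu antibody, incubated 3 h at room temperature. Signals read at 620 and 665 nm.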

[10] = system: K562; assay: CCK-8 proliferation, K562; format: cell-based; conditions: Homo sapiens, 72 or 96 hours, read-out: Inhibitory activity (IC50) on tumor cell proliferation, K562
Protocol: as §2, §3

[11] = system: MM.1R; assay: CCK-8 proliferation, MM.1R; format: cell-based; conditions: CCK-8, 72 hours, read-out: Inhibitory activity (IC50) on tumor cell proliferation, MM.1R
Method in brief: as §1

[12] = system: H2228; assay: CCK-8 proliferation, NCI-H2228 (H2228); format: cell-based; conditions: Homo sapiens, NCI-H2228; CCK-8; 96 hours; read-out: Inhibitory activity (IC50) on tumor cell proliferation, H2228
Method in brief: as §1

[13] = system: PC-9; assay: CCK-8 proliferation, PC-9; format: cell-based, Human; conditions: Homo sapiens, PC-9; CCK-8; 96 hours; read-out: Inhibitory activity (IC50) on tumor cell proliferation, PC-9
Method in brief: as §1

[14] = system: TMD8; assay: CCK-8 proliferation, TMD8; format: cell-based; conditions: Homo sapiens, TMD8; CCK-8; 72 hours; read-out: Inhibitory activity (IC50) on tumor cell proliferation, TMD8
Method in brief: as §1

[15] = system: H1975; assay: CCK-8 proliferation, NCI-H1975 (H1975); format: cell-based, Human; conditions: Homo sapiens, NCI-H1975; CCK-8; 96 hours; read-out: Inhibitory activity (IC50) on tumor cell proliferation, H1975
Method in brief: as §1

- IC50 [1]: > 10 µM
- IC50 [2]: 1 to 5 µM
- IC50 [3]: 1 to 5 µM
- IC50 [4]: 5 to 10 µM
- IC50 [5]: 5 to 10 µM
SMILES: Cc1nc(Nc2ncc(C(=O)Nc3c(C)cccc3Cl)s2)cc(N2CCN(CCO)CC2)n1 [Dasatinib, reference compound]
- IC50 [6]: 0.1 to 0.5 µM

SMILES: O=C1CCC(Nc2cccc(CN3CCN(C4CCN(c5ccc([C@@H]6c7ccc(O)cc7CC[C@@H]6c6ccccc6)cc5)CC4)CC3)c2)C(=O)N1 (stereo partly drawn) [GT-04674, 3-((3-((4-(1-(4-((1R,2S)-6-hydroxy-2-phenyl-1,2,3,4-tetrahydronaphthalen-1-yl)phenyl)piperidin-4-yl)piperazin-1-yl)methyl)phenyl)amino)pip eridine-2,6-dione]
- Degradation of substrate protein ER (substrate protein remaining %) [7]: A (A is defined as 0% ≤ substrate protein remaining % ≤ 80%)

SMILES: CN(Cc1ccc(C2CCC(=O)NC2=O)c(F)c1)C1CCN(c2ccc(C(=O)Nc3n[nH]c4ccc(Cc5cc(F)cc(F)c5)cc34)c(NC3CCOCC3)c2)CC1 (stereo not drawn) [GT-03965, N-(5-(3,5-difluorobenzyl)-1H-indazol-3-yl)-4-(4-((4-(2,6-dioxopiperidin-3-yl)-3-fluorobenzyl)(methyl)amino)piperidin-1-yl)-2-((tetrahydro-2H-pyran-4-yl)amino)benzamide]
- Degradation of substrate protein TRK (substrate protein remaining %) [8]: A (A is defined as 0% ≤ substrate protein remaining % ≤ 80%)

SMILES: O=C1CCC(c2ccc(CN3CCN(C4CCN(c5ccc([C@@H]6c7ccc(O)cc7CC[C@@H]6c6ccccc6)cc5)CC4)CC3)cc2F)C(=O)N1 (stereo partly drawn) [GT-04670, 3-(2-fluoro-4-((4-(1-(4-((1R,2S)-6-hydroxy-2-phenyl-1,2,3,4-tetrahydronaphthalen-1-yl)phenyl)piperidin-4-yl)piperazin-1-yl)methyl)phenyl)piperidine-2,6-dione]
- IC50 [9]: 0.5 to 1 µM
- Degradation of substrate protein ER (substrate protein remaining %) [7]: A (A is defined as 0% ≤ substrate protein remaining % ≤ 80%)

- IC50 [1]: 0.1 to 0.5 µM
- IC50 [2]: 0.05 to 0.1 µM
- IC50 [3]: 0.1 to 0.5 µM
- IC50 [4]: 0.1 to 0.5 µM
- IC50 [5]: 0.1 to 0.5 µM
SMILES: Cc1ccc(C(=O)Nc2ccc(CN3CCN(Cc4ccc(C5CCC(=O)NC5=O)cc4)CC3)c(C(F)(F)F)c2)cc1C#Cc1cnc2cccnn12 (stereo not drawn) [GT-03936]
- IC50 [6]: 0.1 to 0.5 µM

- IC50 [10]: 0.1 to 0.5 µM
- IC50 [3]: 0.1 to 0.5 µM
- IC50 [11]: 0.1 to 0.5 µM
SMILES: NC(=O)c1ccc(N2CCC(N3CCN(Cc4ccc(C5CCC(=O)NC5=O)c(F)c4)CC3)CC2)nc1-c1ccc(Oc2ccccc2)cc1 (stereo not drawn) [GT-03754, 6-(4-(4-(4-(2,6-dioxopiperidin-3-yl)-3-fluorobenzyl)piperazin-1-yl)piperidin-1-yl)-2-(4-phenoxyphenyl)nicotinamide]

SMILES: O=C1CCC(c2ccc(CN3CCN(C4CCN(c5ccc([C@@H]6c7ccc(O)cc7CC[C@@H]6c6ccccc6)cc5)CC4)CC3)cc2)C(=O)N1 (stereo partly drawn) [GT-04684, 3-(4-((4-(1-(4-((1R,2S)-6-hydroxy-2-phenyl-1,2,3,4-tetrahydronaphthalen-1-yl)phenyl)piperidin-4-yl)piperazin-1-yl)methyl)phenyl)piperidine-2,6-dione]
- IC50 [9]: 1 to 1.9 µM
- Degradation of substrate protein ER (substrate protein remaining %) [7]: A (A is defined as 0% ≤ substrate protein remaining % ≤ 80%)

- IC50 [10]: 0.1 to 0.5 µM
- IC50 [3]: 0.5 to 1 µM
- IC50 [11]: 0.5 to 1 µM
SMILES: NC(=O)c1ccc(N2CCC(N3CCN(Cc4ccc(C5CCC(=O)NC5=O)cc4)CC3)CC2)nc1-c1ccc(Oc2ccccc2)cc1 (stereo not drawn) [GT-03753, 6-(4-(4-(4-(2,6-dioxopiperidin-3-yl)benzyl)piperazin-1-yl)piperidin-1-yl)-2-(4-phenoxyphenyl)nicotinamide]

- IC50 [10]: > 10 µM
- IC50 [12]: > 10 µM
- IC50 [13]: > 10 µM
- IC50 [15]: > 10 µM
- IC50 [3]: > 10 µM
- IC50 [11]: > 10 µM
SMILES: C=CC(=O)N1CCC(c2ccc(C(N)=O)c(-c3ccc(Oc4ccccc4)cc3)n2)CC1 [Orelabrutinib, reference compound]
- IC50 [14]: 5 to 10 µM

SMILES: CN(Cc1ccc(C2CCC(=O)NC2=O)cc1)C1CCN(c2ccc(C(=O)Nc3n[nH]c4ccc(Cc5cc(F)cc(F)c5)cc34)c(NC3CCOCC3)c2)CC1 (stereo not drawn) [GT-03964, N-(5-(3,5-difluorobenzyl)-1H-indazol-3-yl)-4-(4-((4-(2,6-dioxopiperidin-3-yl)benzyl)(methyl)amino)piperidin-1-yl)-2-((tetrahydro-2H-pyran-4-yl)amino)benzamide]
- Degradation of substrate protein TRK (substrate protein remaining %) [8]: A (A is defined as 0% ≤ substrate protein remaining % ≤ 80%)

SMILES: CCC(=C(c1ccc(O)cc1)c1ccc(N2CCN(Cc3ccc(C4CCC(=O)NC4=O)cc3)CC2)cc1)c1ccc(O)cc1 (stereo not drawn) [GT-04149, 3-(4-((4-(4-(1,2-bis(4-hydroxyphenyl)but-1-en-1-yl)phenyl)piperazin-1-yl)methyl)phenyl)piperidine-2,6-dione]
- Degradation of substrate protein ER (substrate protein remaining %) [7]: A (A is defined as 0% ≤ substrate protein remaining % ≤ 80%)

From patent EP4678638A1, “NEW E3 UBIQUITIN LIGASE LIGAND, PROTEIN DEGRADATION AGENT AND USE THEREOF” (priority 2023, dated 2024)
